Here are results for 14 molecules from paper PMC4778717 (ChemMedChem, 2015).

Experiment [1] has as its system S. aureus Mu50. Briefly: Bacteriostatic effect. It counts as cell-based. To be noted: for Fold by which 7b and 12a are more effective than the antibiotic (MIC): S. aureus Mu50, label = antibiotic compared; for MIC: Staphylococcus aureus, MRSA, read-out: MIC, S. aureus Mu50.
For experiment [2], the target named is EcSecAN68 (Escherichia coli, UniProt P10408). Briefly: biochemical. Further details: species or system E. coli.
Sequence of EcSecAN68 (P10408 1-610): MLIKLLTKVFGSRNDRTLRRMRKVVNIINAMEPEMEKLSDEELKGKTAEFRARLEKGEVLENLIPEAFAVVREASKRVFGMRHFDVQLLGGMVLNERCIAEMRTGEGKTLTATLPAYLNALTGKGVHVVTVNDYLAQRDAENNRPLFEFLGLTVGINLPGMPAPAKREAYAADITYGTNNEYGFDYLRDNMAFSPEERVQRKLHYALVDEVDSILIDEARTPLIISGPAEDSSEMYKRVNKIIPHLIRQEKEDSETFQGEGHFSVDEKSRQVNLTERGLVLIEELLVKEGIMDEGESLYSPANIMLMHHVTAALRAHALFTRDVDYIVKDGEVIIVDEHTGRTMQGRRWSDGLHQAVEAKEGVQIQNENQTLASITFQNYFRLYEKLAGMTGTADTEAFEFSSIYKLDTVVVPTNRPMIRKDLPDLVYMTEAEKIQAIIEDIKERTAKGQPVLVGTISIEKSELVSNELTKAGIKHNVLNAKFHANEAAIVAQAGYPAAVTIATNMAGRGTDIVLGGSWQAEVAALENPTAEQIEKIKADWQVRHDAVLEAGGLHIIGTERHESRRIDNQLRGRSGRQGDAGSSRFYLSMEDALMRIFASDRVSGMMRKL
Experiment [3] relates to S. aureus 6538. Briefly: Bacteriostatic effect. It is filed as cell-based. To be noted: Staphylococcus aureus, 6538, 24 h, read-out: MIC, S. aureus 6538.
The subject of experiment [4] is E. coli NR698. Briefly: Bacteriostatic effect. It counts as cell-based. The following applies: Escherichia coli, NR698, 24 h, read-out: MIC, E. coli NR698.

Converted amounts (≈) assume the structure as drawn.

Take polymyxin B: the “MIC, S. aureus Mu50” value in experiment [1] (MRSA strain Mu50, comparison with clinically used antibiotics) was 31 µg/mL. For the same molecule, in experiment [1], the “Fold by which 7b and 12a are more effective than the antibiotic (MIC)” value (“Fold” below) is on record as > 40 fold.
One may read the MIC as the smallest concentration in the dilution series that meets the test's criterion for growth inhibition. Take `CC[C@H]1OC(=O)[C@H](C)[C@@H](O[C@H]2C[C@@](C)(OC)[C@@H](O)[C@H](C)O2)[C@H](C)[C@@H](O[C@@H]2O[C@H](C)C[C@H](N(C)C)[C@H]2O)[C@](C)(O)C[C@@H](C)C(=O)[C@H](C)[C@@H](O)[C@]1(C)O` [erythromycin]: in experiment [1], the “Fold” value is given as > 1600 fold; the MIC is 1250 µg/mL (≈ 1700 µM).
For `CC1(C)S[C@@H]2[C@H](NC(=O)[C@H](N)c3ccccc3)C(=O)N2[C@H]1C(=O)O` [ampicillin], in experiment [1], the “Fold” value was > 1300 fold; the MIC amounted to 1000 µg/mL (≈ 2860 µM).
As usually defined, the IC50 is the concentration needed to halve the response being measured. A low value points to greater potency in that assay. As for `CSc1nc(Cl)cc(Sc2nnc(-c3cc(C(F)(F)F)cc(C(F)(F)F)c3)o2)n1` [Compound 15, 2-(3,5-Bis(trifluoromethyl)phenyl)-5-((6-chloro-2-(methylthio)pyrimidin-4-yl)thio)-1,3,4-oxadiazole], the IC50 in experiment [2] amounted to 200 µM. For the same molecule, the MIC in experiment [3] is > 250 µM; in experiment [4] it was > 100 µM.
The like results for `FC(F)(F)c1cc(-c2n[nH]c(Oc3nc(Cl)cc(Oc4nnc(-c5cc(C(F)(F)F)cc(C(F)(F)F)c5)[nH]4)n3)n2)cc(C(F)(F)F)c1` [Compound 18] were, in that order, < 50 µM, 250 µM (≈ 176 µg/mL) and > 250 µM.
For `CCc1ccc(-c2nc(Sc3nc(Cl)cc(Cl)n3)[nH]c(=O)c2C#N)cc1` [Compound 20b, 2-((4,6-Dichloropyrimidin-2-yl)thio)-4-(4-ethylphenyl)-6-oxo-1,6-dihydropyrimidine-5-carbonitrile], the IC50 in experiment [2] was < 50 µM. Moreover, the MIC in experiment [3] and in experiment [4] was > 250 µM throughout.
For `Fc1cccc(-c2nnc(Sc3nc(Cl)cc(Cl)n3)[nH]2)c1` [Compound 16d, 4,6-Dichloro-2-((5-(3-fluorophenyl)-4H-1,2,4-triazol-3-yl)thio) pyrimidine], the IC50 in experiment [2] is > 100 µM. Moreover, the MIC in experiment [3] is ≥ 100 µM; in experiment [4], 200 µM (≈ 68.4 µg/mL).
In experiment [2], `CSC1=NC2=C(CN1)CNn1c(nnc1-c1cc(C(F)(F)F)cc(C(F)(F)F)c1)S2` [Compound 26] returned an IC50 of 50 µM. Moreover, the MIC in experiment [3] and in experiment [4] was > 100 µM each time.
Molecule `CSc1nc(Cl)c2c(n1)Sc1nnc(-c3cc(C(F)(F)F)cc(C(F)(F)F)c3)n1NC2` [Compound 25] showed an IC50 in experiment [2] of 46 µM. Also, the results for the MIC in experiment [3] and in experiment [4] were > 100 µM and > 250 µM, respectively.
With `FC(F)(F)c1ccc(-c2nnc(Sc3cc(Cl)nc(Sc4ccccc4)n3)[nH]2)cc1` [Compound 12i, 4-Chloro-2-(phenylthio)-6-((5-(4-(trifluoromethyl)phenyl)-4H-1,2,4-triazol-3-yl)thio) pyrimidine], the IC50 in experiment [2] is < 50 µM. For the same molecule, the results for the MIC in experiment [3] and in experiment [4] were 8.3 µM (≈ 3.87 µg/mL) and 12.5 µM (≈ 5.82 µg/mL), respectively.
`CSc1nc(Cl)cc(Sc2nnc(-c3cc(C)cc(C)c3)[nH]2)n1` [Compound 7e, 4-Chloro-6-((5-(3,5-dimethylphenyl)-4H-1,2,4-triazol-3-yl)thio)-2-(methylthio) pyrimidine] registered an IC50 in experiment [2] of 30 µM. Also, the MIC in experiment [3] and in experiment [4] was 50 µM (≈ 18.2 µg/mL) each time.
`FC(F)(F)c1cc(-c2nnc(S)[nH]2)cc(C(F)(F)F)c1` [Compound 5a, 5-(3,5-Bis(trifluoromethyl)phenyl)-4H-1,2,4-triazole-3-thiol] had an IC50 in experiment [2] of 60 µM. The MIC in experiment [3] and in experiment [4] was > 250 µM throughout.
With `Cc1cc(C)cc(-c2nnc(Sc3cc(Cl)ncn3)[nH]2)c1` [Compound 9a, 4-Chloro-6-((5-(3,5-dimethylphenyl)-4H-1,2,4-triazol-3-yl)thio) pyrimidine], the IC50 in experiment [2] is > 200 µM. Besides, the MIC in experiment [3] and in experiment [4] was > 250 µM each time.
In the case of `CSc1nc(Cl)c2c(n1)Sc1nnc(-c3cc(C(F)(F)F)cc(C(F)(F)F)c3)n1N=C2` [Compound 24], in experiment [2], the IC50 was < 25 µM. Besides, the values for the MIC in experiment [3] and in experiment [4] were 3.1 µM (≈ 1.54 µg/mL) and 12.5 µM (≈ 6.21 µg/mL), respectively.
